The values below come from patent US8088791B2, “Antibacterial agents” (Biots Scientific Management Pty Ltd, priority 2006, dated 2012).

Read-outs that look alike come from different tables or passages of the source.

Assay [1] has as its system Staphylococcus aureus ATCC29213. Briefly: Minimum Inhibitory Concentration (MIC) testing, broth microdilution, Staphylococcus aureus. To be noted: Staphylococcus aureus ATCC29213; read-out: Staphylococcus aureus MICs Activity. The assay is classed as cell-based. The gist of the method:
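Broth microdilution per NCCLS M7-A5 in Mueller Hinton broth, with compound in 1.6% DMSO and inoculum at OD 0.09 diluted 1:100. Plates incubated 16–20 h at 37°C. MIC is the lowest concentration with no visible growth; scored A ≤8, B 16–64, C >64 μg/ml.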
A general note: Dilution methods test growth across graded concentrations, often in twofold steps.

Assay [2] deals with Staphylococcus aureus. Kind of assay: mouse Staphylococcus aureus septicaemia model of infection. The assay is classed as in vivo. Particulars: survival at day 7 of infected mice; single intraperitoneal dose of 100 mg/kg at 1 hour after intraperitoneal inoculation with a lethal dose of Staphylococcus aureus. How it is done:
Some of the Examples were also tested for activity in a mouse Staphylococcus aureus septicaemia model of infection.

For assay [3], the system named is Bacillus subtilis 168CA. Kind of assay: Minimum Inhibitory Concentration (MIC) testing, broth microdilution, Bacillus subtilis. The assay is classed as cell-based. To be noted: Bacillus subtilis 168CA; read-out: Bacillus subtilis MICs Activity. The gist of the method:
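Broth microdilution followed NCCLS M7-A5, in rich broth such as Mueller Hinton, inoculum at OD 0.09 diluted 1:100, compounds in 1.6% DMSO before inoculum. After 16–20 h at 37 °C, MIC was the lowest concentration without visible growth. Score A: ≦8 μg/ml, B: 16–64 μg/ml, C: >64 μg/ml.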

Assay [4] deals with various bacterial species. Kind of assay: Minimum Inhibitory Concentration (MIC) testing, broth microdilution, other bacterial species. It is filed as cell-based. The gist of the method: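 Broth microdilution per NCCLS M7-A5 in rich broth (e.g. Mueller Hinton), inoculum from OD 0.09 suspension diluted 1:100 in 2× broth. Incubation 16-20 hours at 37° C; turbidity scored visually and spectrophotometrically. MIC is the lowest concentration inhibiting visible growth, binned A ≦8, B 16-64, C >64 micrograms/ml.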

The test system of assay [5] is staphylococcal clinical isolates. Kind of assay: Minimum Inhibitory Concentration (MIC) testing, broth microdilution, staphylococcal clinical isolates. The assay is classed as cell-based. To be noted: for MIC: read-out: MIC Activity against clinical isolate. How it is done: Compounds of this invention were tested for antimicrobial activity by susceptibility testing in liquid media. MICs for compounds against each strain were determined by a broth microdilution method according to the National Committee for Clinical Laboratory Standards (NCCLS) guidelines. (NCCLS. 2000. Methods for dilution antimicrobial susceptibility tests for bacteria that grow aerobically—fifth edition. Approved standard M7-A5. NCCLS, Wayne, Pa.)
Briefly, test compounds are prepared in 100 μl of 1.6% DMSO solution in multiwell plates. Several bacterial colonies from a freshly streaked plate are transferred to an appropriate rich broth, such as Mueller Hinton. The cell suspension is adjusted to an optical density of 0.09 and further diluted 1:100 with warm 2× broth. This cell suspension is dispensed into the wells containing compound solution so that the final volume is 200 μl. The plates are incubated overnight (16-20 hours) at 37° C. and turbidity is scored by eye and quantified spectrophotometrically. The MIC is defined as the lowest concentration inhibiting visible growth.
Some of the Examples were also tested for activity against staphylococcal clinical isolates. […] Activities were again scored as ‘A’ if the MIC was ≦8 micrograms/ml, ‘B’ if the MIC was 16 to 64 micrograms/ml and ‘C’ if the MIC was greater than 64 micrograms/ml.

[6] abbreviates: Bacillus cereus, ATCC14579, read-out: MIC Activity Bacillus cereus ATCC 14579.
The mark [7] stands for this setting: Staphylococcus epidermidis, ATCC12228, read-out: MIC Activity Staphylococcus epidermidis ATCC 12228.
Where [8] appears, read: Staphylococcus haemolyticus, ATCC29970, read-out: MIC Activity Staphylococcus haemolyticus ATCC 29970.
Setting [9] is: Staphylococcus saprophyticus, ATCC15305, read-out: MIC Activity Staphylococcus saprophyticus ATCC 15305.

Consider `COc1ccc(-c2noc(COc3ccc(F)c(C(N)=O)c3F)n2)cc1` [Example 241, 2,6-Difluoro-3-[3-(4-methoxyphenyl)-1,2,4-oxadiazol-5-yl]methoxybenzenecarboxamide], for which the MIC in assay [1] and in assay [3] was below 8 µg/mL each time. Also, the Percent survival in assay [2] is 100%.

Regarding `NC(=O)c1c(F)ccc(OCc2nc3cc(Cl)ccc3s2)c1F` [Example 218, 3-[(5-Chloro-1,3-benzothiazol-2-yl)methoxy]-2,6-difluorobenzenecarboxamide], the MIC in assay [4] (setting [6]), in assay [4] (setting [7]), in assay [4] (setting [8]), in assay [4] (setting [9]), in assay [1] and in assay [3] was below 8 µg/mL each time. Moreover, the MIC in assay [5] (Staphylococcus aureus, ATCC29213, S. aureus No. 0100, Oxacillin S, ATCC 29213) is below 8 µg/mL; in assay [5] (Staphylococcus aureus, S. aureus No. 1015, Oxacillin R, Van-S, LZD-S, Hospital) it was below 8 µg/mL; in assay [5] (Staphylococcus epidermidis, S. epidermidis No. 835, Oxacillin S), below 8 µg/mL. In assay [2], this molecule displayed a Percent survival of 100%. Further, the “MIC Activity against clinical isolate” value is listed as “A (‘A’ if the MIC was ≦8 micrograms/ml)” in assay [5] (S. aureus No. 753, Oxacillin S, Hospital); “A (‘A’ if the MIC was ≦8 micrograms/ml)” in assay [5] (S. aureus No. 757, Oxacillin R, Tet-R, MI-R, Hospital (tetM)); “A (‘A’ if the MIC was ≦8 micrograms/ml)” in assay [5] (S. aureus No. 1134, Oxacillin S, Hospital); “A (‘A’ if the MIC was ≦8 micrograms/ml)” in assay [5] (S. aureus No. 1135, Oxacillin R, Van-S, LZD-S, Hospital); “A (‘A’ if the MIC was ≦8 micrograms/ml)” in assay [5] (S. aureus No. 1651, Oxacillin R, Van-S, LZD-R, Hospital (G2576T, G)); “A (‘A’ if the MIC was ≦8 micrograms/ml)” in assay [5] (S. aureus No. 1652, Oxacillin R, Van-S, LZD-R, Hospital (T2500T, A)). Further, the “MIC Activity against clinical isolate” value in assay [5] (S. aureus No. 1662, Oxacillin S, Hospital) is “A (‘A’ if the MIC was ≦8 micrograms/ml)”; in assay [5] (S. aureus No. 1725, Oxacillin R, Van-S, LZD-R, Hospital (G2576T)), “A (‘A’ if the MIC was ≦8 micrograms/ml)”; in assay [5] (S. aureus No. 1729, Oxacillin R, Tet-R, MI-R, Hospital), “A (‘A’ if the MIC was ≦8 micrograms/ml)”; in assay [5] (S. aureus No. 2011, Oxacillin R, Tet-R, MI-S, Hospital (tetK)) it was “A (‘A’ if the MIC was ≦8 micrograms/ml)”; in assay [5] (S. aureus No. 2012, Oxacillin R, Van-I, LZD-S, Hospital) it was “A (‘A’ if the MIC was ≦8 micrograms/ml)”; in assay [5] (S. aureus No. 2018, Oxacillin R, Van-I, LZD-S, Hospital) it was “A (‘A’ if the MIC was ≦8 micrograms/ml)”. In addition, the “MIC Activity against clinical isolate” value in assay [5] (S. aureus No. 2142, Oxacillin R, CC-S, SXT-S, Community) is reported as “A (‘A’ if the MIC was ≦8 micrograms/ml)”; in assay [5] (S. aureus No. 2143, Oxacillin R, Rif-R, Community), “A (‘A’ if the MIC was ≦8 micrograms/ml)”; in assay [5] (S. aureus No. 2147, Oxacillin R, CC-S, SXT-S, Community) it was “A (‘A’ if the MIC was ≦8 micrograms/ml)”; in assay [5] (S. aureus No. 2149, Oxacillin R, CC-R (iMLS), SXT-S, Community) it was “A (‘A’ if the MIC was ≦8 micrograms/ml)”; in assay [5] (S. aureus No. 2150, Oxacillin R, CC-R, SXT-S, Community), “A (‘A’ if the MIC was ≦8 micrograms/ml)”; in assay [5] (S. aureus No. 2158, Oxacillin R, CC-R, Doxy-I, Community) it was “A (‘A’ if the MIC was ≦8 micrograms/ml)”. Also, the “MIC Activity against clinical isolate” value in assay [5] (S. aureus No. 2175, Oxacillin R, TMP-R, Community) is given as “A (‘A’ if the MIC was ≦8 micrograms/ml)”; in assay [5] (S. epidermidis No. 831, Oxacillin R) it was “A (‘A’ if the MIC was ≦8 micrograms/ml)”; in assay [5] (S. epidermidis No. 1139, Oxacillin S) it was “A (‘A’ if the MIC was ≦8 micrograms/ml)”; in assay [5] (S. epidermidis No. 1142, Oxacillin R) it was “A (‘A’ if the MIC was ≦8 micrograms/ml)”; in assay [5] (S. epidermidis No. 1144, Oxacillin R) it was “A (‘A’ if the MIC was ≦8 micrograms/ml)”.

For `NC(=O)c1c(F)ccc(OCc2nc(-c3ccc(Cl)cc3)no2)c1F` [Example 246, 3-[3-(4-Chlorophenyl)-1,2,4-oxadiazol-5-yl]methoxy-2,6-difluorobenzenecarboxamide], the MIC in assay [4] (setting [6]), in assay [4] (setting [7]), in assay [4] (setting [8]), in assay [4] (setting [9]), in assay [1] and in assay [3] was below 8 µg/mL throughout. Besides, the Percent survival in assay [2] was determined as 100%.

As for `Cc1ccc(-c2noc(COc3ccc(F)c(C(N)=O)c3F)n2)cc1` [Example 247, 2,6-Difluoro-3-[3-(4-methylphenyl)-1,2,4-oxadiazol-5-yl]methoxybenzenecarboxamide], the MIC in assay [1] and in assay [3] was below 8 µg/mL throughout. In addition, in assay [2], the Percent survival is on record as 100%.

Consider `NC(=O)c1c(F)ccc(OCc2nc(-c3ccc(Cl)cc3)cs2)c1F` [Example 106, 3-[4-(4-Chloro-phenyl)-thiazol-2-ylmethoxy]2,6-difluoro-benzamide], for which the MIC in assay [4] (setting [6]), in assay [4] (setting [7]), in assay [4] (setting [8]), in assay [4] (setting [9]), in assay [1] and in assay [3] was below 8 µg/mL in each case. In assay [2], this molecule came in with a Percent survival of 100%.
